From patent US9717725B2, “Use of opioid antagonists” (THE UNIVERSITY OF CHICAGO, priority 2005, dated 2017)
pIC50: −log10 of the molar value. “Also recorded” adds a separate entry of the source.

Experiments:
[1] = tested on: microvascular endothelial cells; assay: VEGF induced proliferation of endothelial cells, combination (Example 10); assay type: cell-based; details: combination of methylnaltrexone and 5-FU
[2] = tested on: SW 480 human colorectal cancer cell line; assay: Effects on SW 480 cancer cell line
S1P3 receptor = assay: Tyrosine phosphorylation of the S1P3 receptor in EC (Example 9); assay type: cell-based, human; details: for induction of tyrosine phosphorylation of the S1P3 receptor: EC
PDGF receptor = assay: Tyrosine phosphorylation of the PDGF receptor in EC (Example 9); assay type: cell-based, human; details: for induction of tyrosine phosphorylation of the PDGF receptor: EC
VEGF receptor = assay: Tyrosine phosphorylation of the VEGF receptor in EC (Example 9); assay type: cell-based, human; details: for induction of tyrosine phosphorylation of the VEGF receptor: EC
[3] = tested on: human pulmonary microvascular endothelial cells (HPMVEC); assay: Human pulmonary microvascular EC migration assay (Transwell); assay type: cell-based; details: for agonist-induced EC migration (% migration): agonist in lower chamber, Transwell
RhoA = RhoA activation assay (RBD bead pull-down, immunoblot); assay type: cell-based, human; details: EC
VEGF receptor 2 (Flk-1) = assay: Tyrosine phosphorylation of VEGF receptor 2 (immunoprecipitation/immunoblot); assay type: cell-based, human; details: HPMVEC
[4] = tested on: human pulmonary microvascular endothelial cells (HPMVEC); assay: Human pulmonary microvascular EC proliferation assay (CellTiter96 MTS); assay type: cell-based; details: for agonist-induced EC proliferation: serum-free media with agonist, MTS assay
VEGF receptor 1 (Flt-1) = assay: Tyrosine phosphorylation of VEGF receptor 1 (immunoprecipitation/immunoblot); assay type: cell-based, human; details: HPMVEC
mu-opioid receptor = mu-opioid receptor (Homo sapiens, UniProt P35372); assay: Serine/threonine phosphorylation of the mu-opioid receptor in EC (Example 9); assay type: cell-based; details: for induction of serine/threonine phosphorylation of the mu-opioid receptor: EC
Sequence of mu-opioid receptor (P35372 whole entry): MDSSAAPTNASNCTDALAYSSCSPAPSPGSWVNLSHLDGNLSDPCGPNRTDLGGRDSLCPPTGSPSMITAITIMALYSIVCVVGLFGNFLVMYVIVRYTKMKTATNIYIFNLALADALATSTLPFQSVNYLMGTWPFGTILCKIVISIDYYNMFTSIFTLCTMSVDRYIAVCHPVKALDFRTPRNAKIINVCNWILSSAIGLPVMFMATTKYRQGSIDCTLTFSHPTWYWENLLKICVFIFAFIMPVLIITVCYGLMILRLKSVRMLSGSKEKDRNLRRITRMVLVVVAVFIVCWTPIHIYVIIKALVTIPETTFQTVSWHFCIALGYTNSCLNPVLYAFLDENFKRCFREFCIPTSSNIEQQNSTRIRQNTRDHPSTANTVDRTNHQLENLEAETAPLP

tumors = assay: Treatment of tumor-bearing mice (Examples 4-7); assay type: in vivo; details: eight weeks; for tumor growth and angiogenesis: antagonist orally 5 mg/kg/day with morphine 0.5 mg/kg/day; for angiogenesis and tumor growth, combination of opioid, opioid antagonist and anticancer agent: with morphine and bevacizumab (Avastin) 5 mg/kg every 14 days
tumor = assay: Study in human cancer patients (Examples 6-7); assay type: in vivo; details: antagonist orally 5 mg/kg/day for eight weeks with opioid and bevacizumab (Avastin)
[5] = J. Foss, et al.; cited from earlier work
[6] = tested on: microvascular endothelial cells; assay: VEGF induced migration of endothelial cells, combination (Example 10); assay type: cell-based; details: combination of methylnaltrexone and Bevacizumab
[7] = tested on: Lewis lung carcinoma (LLC) cells; assay: LLC cell invasion assay (Chemicon Cell Invasion Assay Kit); assay type: cell-based; details: methylnaltrexone (10 nM or 100 nM)
[8] = tested on: Lewis lung carcinoma (LLC) tumor; assay: LLC flank tumor model, continuous MNTX infusion; assay type: in vivo, C57BL/6J mice; details: for appearance of macrometastases in the lungs / appearance of micrometastases in the lungs: continuous infusion 10 mg/kg/day
[9] = doses maintaining plasma levels about 25 and 150 ng/mL (Yuan et al.); cited from earlier work
[10] = tested on: Lewis lung carcinoma (LLC) cells; assay: LLC cell proliferation in vitro; assay type: cell-based; details: treatment in vitro with methylnaltrexone
Flk-1 expression = details: morphine-treated mice versus controls (K. Gupta, personal communication); cited from earlier work
[11] = tested on: proliferative retinopathy; details: sickle cell disease (Gupta et al., personal communication); cited from earlier work
[12] = pretreatment with MNTX 0.1 μM, 1 hour
[13] = summary statement, concentration dependence

O=c1[nH]cc(F)c(=O)[nH]1 [5-FU, 5-fluorouracil]
inhibition of VEGF induced proliferation of endothelial cells by the combination [1]: synergistically inhibit | pIC50 ([2]; Homo sapiens, SW480): ~5.00

C[C@@H](NC(=O)[C@@H](N)Cc1ccc(O)cc1)C(=O)NCC(=O)N(C)[C@@H](Cc1ccccc1)C(=O)NCCO [DAMGO, [D-Ala^2, N-McPhe^4, Gly^5-ol]-enkephalin]
induction of tyrosine phosphorylation of the S1P3 receptor (S1P3 receptor): induced tyrosine phosphorylation | induction of tyrosine phosphorylation of the PDGF receptor (PDGF receptor): induced tyrosine phosphorylation | induction of tyrosine phosphorylation of the VEGF receptor (VEGF receptor): induced tyrosine phosphorylation | agonist-induced EC migration (% migration) [3]: induce HPMVEC migration; also recorded: induced | RhoA activation by agonist (RhoA): stimulate RhoA activation | induction of tyrosine phosphorylation of VEGF receptor 2 (Flk-1) (VEGF receptor 2 (Flk-1)): induce tyrosine phosphorylation | agonist-induced EC proliferation [4]: stimulate HPMVEC proliferation; also recorded: induced proliferation | induction of tyrosine phosphorylation of VEGF receptor 1 (Flt-1) (VEGF receptor 1 (Flt-1)): induce tyrosine phosphorylation

CCCCCCCCCCCCC/C=C/[C@@H](O)[C@@H](N)COP(=O)(O)O [S1P, sphingosine 1-phosphate]
agonist-induced EC migration (% migration) [3]: induced | RhoA activation by agonist (RhoA): activation | agonist-induced EC proliferation [4]: induced proliferation | induction of serine/threonine phosphorylation of the mu-opioid receptor (mu-opioid receptor): induced serine/threonine phosphorylation

C[C@H]1CN(C[C@H](Cc2ccccc2)C(=O)NCC(=O)O)CC[C@@]1(C)c1cccc(O)c1 [alvimopan]
tumor growth and angiogenesis (tumors): reduction in tumor growth and angiogenesis | angiogenesis and tumor growth, combination of opioid, opioid antagonist and anticancer agent (tumors): enhanced result | angiogenesis and tumor growth, combination of opioid, opioid antagonist and anticancer agent (tumor): enhanced result | transpassage across the membrane [5]: some transpassage

C[N@+]1(CC2CC2)CC[C@]23c4c5ccc(O)c4O[C@H]2C(=O)CC[C@@]3(O)[C@H]1C5 [methylnaltrexone, N-methylnaltrexone]
attenuation of agonist induced S1P3 receptor phosphorylation (S1P3 receptor; MNTX pretreatment of EC): attenuated | inhibition of VEGF induced migration of endothelial cells by the combination [6]: synergistically inhibit | inhibition of VEGF induced proliferation of endothelial cells by the combination [1]: synergistically inhibit | tumor growth and angiogenesis (tumors): reduction in tumor growth and angiogenesis | angiogenesis and tumor growth, combination of opioid, opioid antagonist and anticancer agent (tumors): enhanced result | attenuation of agonist induced PDGF receptor phosphorylation (PDGF receptor; MNTX pretreatment of EC): attenuated | angiogenesis and tumor growth, combination of opioid, opioid antagonist and anticancer agent (tumor): enhanced result | attenuation of agonist induced VEGF receptor phosphorylation (VEGF receptor; MNTX pretreatment of EC): attenuated | reduction of LLC invasion [7]: significantly reduced; also recorded: dose-dependent inhibition | inhibition of MS, DAMGO and VEGF induced HPMVEC migration ([3]; 100 nM MNTX, 100 nM agonist, 18 hours): inhibited | inhibition of S1P, VEGF, PDGF, morphine and DAMGO induced EC migration [3, 12]: inhibited | inhibition of opioid- and growth factor-induced migration of endothelial cells [3, 13]: in a concentration dependent manner | appearance of macrometastases in the lungs [8]: attenuated | appearance of micrometastases in the lungs [8]: attenuated | appearance of macrometastases in the lungs ([8]; listed as MNTX): attenuated; also recorded: inhibition; also recorded: decrease in lung macrometastases | appearance of micrometastases in the lungs ([8]; listed as MNTX): attenuated; also recorded: inhibition | attenuation of tumor growth ([8]; infusion 10 mg/kg/day, wild-type mice injected with LLC cells): up to 90% | antiproliferation activity ([2]; MNTX alone, P<0.01 compared to control): possesses antiproliferation activity | enhancement of 5-FU's tumoricidal effect ([2]; with 5-FU 10 μM, P<0.05 compared to 5-FU 10 μM only): enhanced 5-FU's tumoricidal effect | tolerability [9]: well tolerated | inhibition of agonist-induced RhoA activation (RhoA; agonists morphine, DAMGO, VEGF (S1P, PDGF), listed as MNTX): inhibited; also recorded: attenuated | attenuation of VEGF induced tyrosine phosphorylation of VEGF receptor 2 (VEGF receptor 2 (Flk-1)): attenuates | block of MS and DAMGO induced tyrosine phosphorylation of VEGF receptor 2 (Flk-1) (VEGF receptor 2 (Flk-1)): blocked | attenuation of MS, DAMGO and VEGF stimulated HPMVEC proliferation ([4]; 100 nM MNTX, 100 nM agonist, 24 h): attenuated | inhibition of S1P, VEGF, PDGF, morphine and DAMGO induced EC proliferation [4, 12]: inhibited | inhibition of opioid- and growth factor-induced proliferation of endothelial cells [4, 13]: in a concentration dependent manner | attenuation of agonist induced mu-opioid receptor phosphorylation (mu-opioid receptor; MNTX pretreatment of EC): attenuated | reduction of LLC proliferation [10]: significantly reduced; also recorded: dose-dependent inhibition | attenuation of VEGF induced tyrosine phosphorylation of VEGF receptor 1 (VEGF receptor 1 (Flt-1)): attenuates | block of MS and DAMGO induced tyrosine phosphorylation of VEGF receptor 1 (Flt-1) (VEGF receptor 1 (Flt-1)): blocked

CN1CC[C@]23c4c5ccc(O)c4O[C@H]2[C@@H](O)C=C[C@H]3[C@H]1C5 [morphine]
induction of tyrosine phosphorylation of the S1P3 receptor (S1P3 receptor): induced tyrosine phosphorylation | induction of tyrosine phosphorylation of the PDGF receptor (PDGF receptor): induced tyrosine phosphorylation | induction of tyrosine phosphorylation of the VEGF receptor (VEGF receptor): induced tyrosine phosphorylation | increase in F11 c-1 expression (Flk-1 expression): 10 fold | agonist-induced EC migration (% migration) [3]: induced | agonist-induced EC migration (% migration) ([3]; listed as MS): induce HPMVEC migration | induction of proliferative retinopathy [11]: induced proliferative retinopathy | RhoA activation by agonist (RhoA): stimulate RhoA activation | RhoA activation by agonist (RhoA; listed as MS): stimulate RhoA activation | induction of tyrosine phosphorylation of VEGF receptor 2 (Flk-1) (VEGF receptor 2 (Flk-1)): induce tyrosine phosphorylation | agonist-induced EC proliferation [4]: induced proliferation | agonist-induced EC proliferation ([4]; listed as MS): stimulate HPMVEC proliferation | induction of tyrosine phosphorylation of VEGF receptor 1 (Flt-1) (VEGF receptor 1 (Flt-1)): induce tyrosine phosphorylation

Bevacizumab: anti-VEGF mab (Avastin, Genentech)
inhibition of VEGF induced migration of endothelial cells by the combination [6]: synergistically inhibit

PDGF
agonist-induced EC migration (% migration) [3]: induced | RhoA activation by agonist (RhoA): activation | agonist-induced EC proliferation [4]: induced proliferation | induction of serine/threonine phosphorylation of the mu-opioid receptor (mu-opioid receptor): induced serine/threonine phosphorylation

VEGF
agonist-induced EC migration (% migration) [3]: induce HPMVEC migration; also recorded: induced | RhoA activation by agonist (RhoA): stimulate RhoA activation | agonist-induced EC proliferation [4]: stimulate HPMVEC proliferation; also recorded: induced proliferation | induction of serine/threonine phosphorylation of the mu-opioid receptor (mu-opioid receptor): induced serine/threonine phosphorylation
